{"source": "paper PMC7686313", "about": "“Phase 1 study of mTORC1/2 inhibitor sapanisertib (TAK-228) in advanced solid tumours, with an expansion phase in renal, endometrial or bladder cancer” (British Journal of Cancer, 2020)", "assay": "Safety (adverse events, NCI CTCAE v4.0), expansion phase", "details": "expansion Total (n = 82)", "description": "Based on data collected during dose-escalation, the expansion phase evaluated the safety and efficacy of QD and QW sapanisertib in patients with RCC, endometrial or bladder cancer. Patients could continue receiving sapanisertib for ≤1 year (or beyond, if the investigator and sponsor agreed) in the absence of disease progression or unacceptable toxicity.\nPatients who received ≥1 dose of sapanisertib were included in the safety population. The response-evaluable population included patients who received ≥1 dose of sapanisertib, had measurable disease at baseline, and had ≥1 postbaseline assessment. […] Adverse events (AEs) were assessed using the National Cancer Institute Common Terminology Criteria for Adverse Events, v4.0. Patients were provided with a home blood-glucose meter to monitor their fasting predose blood-glucose measurements to assess hyperglycaemia as an on-target AE and PD marker.", "data": [{"smiles": "CC(C)n1nc(-c2ccc3oc(N)nc3c2)c2c(N)ncnc21", "note": "[Sapanisertib]", "values": [{"measurement": "Abdominal pain, all-grade AE of any cause", "value": "17 (21) n (%)"}, {"measurement": "Abdominal pain, grade ≥3 AE of any cause", "value": "3 (4) n (%)"}, {"measurement": "Acute kidney injury, grade ≥3 AE of any cause", "value": "4 (5) n (%)"}, {"measurement": "Acute kidney injury, treatment-related AE", "value": "6 (7) n (%)"}, {"measurement": "Anaemia, all-grade AE of any cause", "value": "19 (23) n (%)"}, {"measurement": "Anaemia, grade ≥3 AE of any cause", "value": "5 (6) n (%)"}, {"measurement": "Anaemia, treatment-related AE", "value": "12 (15) n (%)"}, {"measurement": "Any AE", "value": "82 (100) n (%)"}, {"measurement": "Any AE resulting in dose modification/interruption", "value": "55 (67) n (%)"}, {"measurement": "Any AE resulting in treatment discontinuation", "value": "12 (15) n (%)"}, {"measurement": "Any SAE", "value": "34 (41) n (%)"}, {"measurement": "Any grade ≥3 AE", "value": "58 (71) n (%)"}, {"measurement": "Any treatment-related AE", "value": "82 (100) n (%)"}, {"measurement": "Any treatment-related SAE", "value": "12 (15) n (%)"}, {"measurement": "Any treatment-related grade ≥3 AE", "value": "38 (46) n (%)"}, {"measurement": "Arthralgia, all-grade AE of any cause", "value": "11 (13) n (%)"}, {"measurement": "Asthenia, grade ≥3 AE of any cause", "value": "3 (4) n (%)"}, {"measurement": "Asthenia, treatment-related AE", "value": "12 (15) n (%)"}, {"measurement": "Asthenia, treatment-related grade ≥3 AE", "value": "2 (2) n (%)"}, {"measurement": "Blood creatinine increased, all-grade AE of any cause", "value": "14 (17) n (%)"}, {"measurement": "Blood creatinine increased, treatment-related AE", "value": "8 (10) n (%)"}, {"measurement": "Constipation, all-grade AE of any cause", "value": "28 (34) n (%)"}, {"measurement": "Constipation, grade ≥3 AE of any cause", "value": "2 (2) n (%)"}, {"measurement": "Cough, all-grade AE of any cause", "value": "22 (27) n (%)"}, {"measurement": "Decreased appetite, all-grade AE of any cause", "value": "41 (50) n (%)"}, {"measurement": "Decreased appetite, treatment-related AE", "value": "37 (45) n (%)"}, {"measurement": "Dehydration, all-grade AE of any cause", "value": "17 (21) n (%)"}, {"measurement": "Dehydration, grade ≥3 AE of any cause", "value": "3 (4) n (%)"}, {"measurement": "Dehydration, treatment-related AE", "value": "9 (11) n (%)"}, {"measurement": "Dehydration, treatment-related grade ≥3 AE", "value": "2 (2) n (%)"}, {"measurement": "Depression, all-grade AE of any cause", "value": "8 (10) n (%)"}, {"measurement": "Diarrhoea, all-grade AE of any cause", "value": "41 (50) n (%)"}, {"measurement": "Diarrhoea, grade ≥3 AE of any cause", "value": "3 (4) n (%)"}, {"measurement": "Diarrhoea, treatment-related AE", "value": "35 (43) n (%)"}, {"measurement": "Diarrhoea, treatment-related grade ≥3 AE", "value": "3 (4) n (%)"}, {"measurement": "Dizziness, all-grade AE of any cause", "value": "12 (15) n (%)"}, {"measurement": "Dry mouth, all-grade AE of any cause", "value": "15 (18) n (%)"}, {"measurement": "Dry mouth, treatment-related AE", "value": "10 (12) n (%)"}, {"measurement": "Dysgeusia, all-grade AE of any cause", "value": "17 (21) n (%)"}, {"measurement": "Dysgeusia, treatment-related AE", "value": "16 (20) n (%)"}, {"measurement": "Dyspepsia, treatment-related AE", "value": "6 (7) n (%)"}, {"measurement": "Dyspnoea, grade ≥3 AE of any cause", "value": "2 (2) n (%)"}, {"measurement": "Fatigue, all-grade AE of any cause", "value": "60 (73) n (%)"}, {"measurement": "Fatigue, grade ≥3 AE of any cause", "value": "11 (13) n (%)"}, {"measurement": "Fatigue, treatment-related AE", "value": "56 (68) n (%)"}, {"measurement": "Fatigue, treatment-related grade ≥3 AE", "value": "10 (12) n (%)"}, {"measurement": "Haematuria, grade ≥3 AE of any cause", "value": "2 (2) n (%)"}, {"measurement": "Headache, all-grade AE of any cause", "value": "12 (15) n (%)"}, {"measurement": "Headache, treatment-related AE", "value": "4 (5) n (%)"}, {"measurement": "Hypercholesterolemia, treatment-related AE", "value": "1 (1) n (%)"}, {"measurement": "Hyperglycaemia, all-grade AE of any cause", "value": "50 (61) n (%)"}, {"measurement": "Hyperglycaemia, grade ≥3 AE of any cause", "value": "13 (16) n (%)"}, {"measurement": "Hyperglycaemia, treatment-related AE", "value": "49 (60) n (%)"}, {"measurement": "Hyperglycaemia, treatment-related grade ≥3 AE", "value": "13 (16) n (%)"}, {"measurement": "Hyperkalaemia, grade ≥3 AE of any cause", "value": "2 (2) n (%)"}, {"measurement": "Hypertension, grade ≥3 AE of any cause", "value": "2 (2) n (%)"}, {"measurement": "Hypokalaemia, grade ≥3 AE of any cause", "value": "2 (2) n (%)"}, {"measurement": "Hyponatremia, grade ≥3 AE of any cause", "value": "3 (4) n (%)"}, {"measurement": "Hypophosphatemia, grade ≥3 AE of any cause", "value": "8 (10) n (%)"}, {"measurement": "Hypophosphatemia, treatment-related AE", "value": "9 (11) n (%)"}, {"measurement": "Hypophosphatemia, treatment-related grade ≥3 AE", "value": "6 (7) n (%)"}, {"measurement": "Lymphopenia, grade ≥3 AE of any cause", "value": "2 (2) n (%)"}, {"measurement": "Lymphopenia, treatment-related grade ≥3 AE", "value": "0 (0) n (%)"}, {"measurement": "Musculoskeletal chest pain, grade ≥3 AE of any cause", "value": "2 (2) n (%)"}, {"measurement": "Nausea, all-grade AE of any cause", "value": "54 (66) n (%)"}, {"measurement": "Nausea, grade ≥3 AE of any cause", "value": "5 (6) n (%)"}, {"measurement": "Nausea, treatment-related AE", "value": "51 (62) n (%)"}, {"measurement": "Nausea, treatment-related grade ≥3 AE", "value": "4 (5) n (%)"}, {"measurement": "Oedema peripheral, all-grade AE of any cause", "value": "15 (18) n (%)"}, {"measurement": "On-study deaths", "value": "3 (4) n (%)"}, {"measurement": "Oropharyngeal pain, all-grade AE of any cause", "value": "13 (16) n (%)"}, {"measurement": "Pain in extremity, grade ≥3 AE of any cause", "value": "3 (4) n (%)"}, {"measurement": "Pneumonia, grade ≥3 AE of any cause", "value": "2 (2) n (%)"}, {"measurement": "Pruritus generalised, all-grade AE of any cause", "value": "19 (23) n (%)"}, {"measurement": "Pruritus generalised, treatment-related AE", "value": "15 (18) n (%)"}, {"measurement": "Pruritus generalised, treatment-related grade ≥3 AE", "value": "1 (1) n (%)"}, {"measurement": "Pruritus, all-grade AE of any cause", "value": "15 (18) n (%)"}, {"measurement": "Pruritus, treatment-related AE", "value": "11 (13) n (%)"}, {"measurement": "Pyrexia, all-grade AE of any cause", "value": "14 (17) n (%)"}, {"measurement": "Rash maculo-papular, all-grade AE of any cause", "value": "24 (29) n (%)"}, {"measurement": "Rash maculo-papular, grade ≥3 AE of any cause", "value": "4 (5) n (%)"}, {"measurement": "Rash maculo-papular, treatment-related AE", "value": "17 (21) n (%)"}, {"measurement": "Rash maculo-papular, treatment-related grade ≥3 AE", "value": "3 (4) n (%)"}, {"measurement": "Rash, treatment-related AE", "value": "2 (2) n (%)"}, {"measurement": "Rash, treatment-related grade ≥3 AE", "value": "0 (0) n (%)"}, {"measurement": "Sepsis, grade ≥3 AE of any cause", "value": "2 (2) n (%)"}, {"measurement": "Stomatitis (includes oropharyngeal pain and mucosal inflammation), treatment-related AE", "value": "37 (45) n (%)"}, {"measurement": "Stomatitis, all-grade AE of any cause", "value": "40 (49) n (%)"}, {"measurement": "Stomatitis, grade ≥3 AE of any cause", "value": "4 (5) n (%)"}, {"measurement": "Stomatitis, treatment-related grade ≥3 AE", "value": "4 (5) n (%)"}, {"measurement": "Thrombocytopenia, grade ≥3 AE of any cause", "value": "4 (5) n (%)"}, {"measurement": "Thrombocytopenia, treatment-related grade ≥3 AE", "value": "4 (5) n (%)"}, {"measurement": "Transitional cell carcinoma, grade ≥3 AE of any cause", "value": "2 (2) n (%)"}, {"measurement": "Urinary tract infection, all-grade AE of any cause", "value": "15 (18) n (%)"}, {"measurement": "Vomiting, all-grade AE of any cause", "value": "43 (52) n (%)"}, {"measurement": "Vomiting, grade ≥3 AE of any cause", "value": "3 (4) n (%)"}, {"measurement": "Vomiting, treatment-related AE", "value": "41 (50) n (%)"}, {"measurement": "Weight decreased, all-grade AE of any cause", "value": "15 (18) n (%)"}, {"measurement": "Weight decreased, treatment-related AE", "value": "9 (11) n (%)"}]}]}
